The results in this text go back to ChEMBL document CHEMBL3526075, “Metabolism of the active metabolite of quetiapine, N-desalkylquetiapine in vitro” (Drug Metab Dispos, 2012).

SMILES strings stand for the structures.

Holding throughout (assay type): ADME
Series [1] relates to Liver microsome. Description: Drug metabolism in human liver microsomes assessed as 7-hydroxy-N-desalkylquetiapine formation at 3 uM after 30 mins by mass spectroscopy. As to conditions: 0.5 h. For orientation: Liver microsomes are a subcellular fraction often used to study metabolism.
Series [2] deals with T1, Cytochrome P450 2D6 (Homo sapiens, UniProt P10635). Description: Activity of human CYP2D6 expressed in supersomes co-expressing cytochrome P450 reductase assessed as intrinsic clearance per pmol protein by LC-MS analysis. Particulars: recombinant enzyme.
T1 sequence (P10635 whole entry): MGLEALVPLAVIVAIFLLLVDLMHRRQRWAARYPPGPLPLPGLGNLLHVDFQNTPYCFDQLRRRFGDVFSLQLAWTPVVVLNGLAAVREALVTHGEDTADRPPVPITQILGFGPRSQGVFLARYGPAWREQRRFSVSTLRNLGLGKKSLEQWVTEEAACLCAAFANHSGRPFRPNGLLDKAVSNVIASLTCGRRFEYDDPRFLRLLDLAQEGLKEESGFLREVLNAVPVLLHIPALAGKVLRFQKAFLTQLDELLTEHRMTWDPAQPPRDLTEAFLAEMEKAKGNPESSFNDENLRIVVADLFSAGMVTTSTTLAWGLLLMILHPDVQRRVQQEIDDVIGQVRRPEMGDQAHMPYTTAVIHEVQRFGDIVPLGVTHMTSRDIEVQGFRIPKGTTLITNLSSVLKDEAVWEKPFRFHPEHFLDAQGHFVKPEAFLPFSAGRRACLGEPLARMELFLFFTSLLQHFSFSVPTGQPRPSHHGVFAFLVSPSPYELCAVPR
Series [3] concerns the target CYP3A4 (Homo sapiens, UniProt P08684). Description: Activity of human CYP3A4 expressed in xenosomes assessed as substrate depletion after 60 mins by LC-MS analysis. Particulars: recombinant CYP3A4 expressed in xenosomes, read-out: Drug metabolism.
Series [4] concerns cytochrome P450. The experiment in a line: Activity of cytochrome P450 in human liver microsomes by LC-MS analysis.
Series [5] has as its target T2, Cytochrome P450 3A4 (Homo sapiens, UniProt P08684). The experiment in a line: Activity of human CYP3A4 expressed in xenosomes assessed as intrinsic clearance per pmol protein by LC-MS analysis.
Series [6] can be described thus: Activity of cytochrome P450 in human liver microsomes assessed as 7-hydroxy-N-desalkylquetiapine formation measured as substrate inhibition constant by LC-MS analysis.
Series [7] has as its system Liver microsome. The experiment in a line: Drug metabolism in human liver microsomes assessed as N-desalkylquetiapine sulfoxide formation at 3 uM after 30 mins by mass spectroscopy in presence of CYP3A4 inhibitor ketoconazole. Particulars: 0.5 h.
For series [8], the target named is T1, Cytochrome P450 2D6. The experiment in a line: Activity of human CYP2D6 expressed in supersomes co-expressing cytochrome P450 reductase assessed as N-desalkylquetiapine sulfoxide formation after 60 mins by LC-MS analysis. Particulars: recombinant enzyme, 1 h.
The target in series [9] is T2, Cytochrome P450 3A4. Description: Activity of human CYP3A4 expressed in supersomes co-expressing cytochrome P450 reductase assessed as metabolite M3 formation after 60 mins by LC-MS analysis. Particulars: recombinant enzyme, 1 h.
Series [10] deals with T1, Cytochrome P450 2D6. The experiment in a line: Activity of human CYP2D6 expressed in supersomes co-expressing cytochrome P450 reductase assessed as 7-hydroxy-N-desalkylquetiapine formation after 60 mins by LC-MS analysis. As to conditions: recombinant enzyme, 1 h.
The target of series [11] is T2, Cytochrome P450 3A4. The experiment in a line: Activity of human CYP3A4 expressed in supersomes co-expressing cytochrome P450 reductase assessed as N-desalkylquetiapine sulfoxide formation after 60 mins by LC-MS analysis. Particulars: recombinant enzyme, 1 h.
The test system of series [12] is Liver microsome. The experiment in a line: Drug metabolism in human liver microsomes assessed as N-desalkylquetiapine sulfoxide formation at 3 uM after 30 mins by mass spectroscopy. As to conditions: 0.5 h.
Series [13] in a line: Activity of cytochrome P450 in human liver microsomes assessed as metabolite M3 formation by LC-MS analysis.
For series [14], the system named is Liver microsome. The experiment in a line: Drug metabolism in human liver microsomes assessed as 7-hydroxy-N-desalkylquetiapine formation at 3 uM after 30 mins by mass spectroscopy in presence of CYP2C9 inhibitor sulfaphenazole. As to conditions: 0.5 h.
Series [15] has as its system Liver microsome. Description: Drug metabolism in human liver microsomes assessed as N-desalkylquetiapine sulfoxide formation at 3 uM after 30 mins by mass spectroscopy in presence of CYP2C19 inhibitor benzylnirvanol. Particulars: 0.5 h.
Series [16] deals with Liver microsome. The experiment in a line: Drug metabolism in human liver microsomes assessed as 7-hydroxy-N-desalkylquetiapine formation at 3 uM after 30 mins by mass spectroscopy in presence of CYP2D6 inhibitor quinidine. As to conditions: 0.5 h.
The nature of series [17]: Activity of cytochrome P450 in human liver microsomes assessed as N-desalkylquetiapine sulfoxide formation measured as low-affinity/high-capacity binding constant by LC-MS analysis.
In series [18] the target is CYP2D6 (Homo sapiens, UniProt P10635). Description: Activity of human CYP2D6 expressed in supersomes co-expressing cytochrome P450 reductase assessed as substrate depletion after 60 mins by LC-MS analysis. Particulars: read-out: Drug metabolism.
CYP2D6, sequence (P10635 whole entry): as above
The nature of series [19]: Activity of cytochrome P450 in human liver microsomes assessed as N-desalkylquetiapine sulfoxide formation measured as high-affinity/low-capacity binding constant by LC-MS analysis.
Series [20] concerns Liver microsome. Description: Drug metabolism in human liver microsomes assessed as 7-hydroxy-N-desalkylquetiapine formation at 3 uM after 30 mins by mass spectroscopy in presence of CYP2C19 inhibitor benzylnirvanol. As to conditions: 0.5 h.
In series [21] the target is T1, Cytochrome P450 2D6. The experiment in a line: Activity of human CYP2D6 expressed in supersomes co-expressing cytochrome P450 reductase assessed as metabolite M3 formation after 60 mins by LC-MS analysis. As to conditions: recombinant enzyme, 1 h.
Series [22] concerns Liver microsome. The experiment in a line: Drug metabolism in human liver microsomes assessed as N-desalkylquetiapine sulfoxide formation at 3 uM after 30 mins by mass spectroscopy in presence of CYP2C9 inhibitor sulfaphenazole. As to conditions: 0.5 h.
For series [23], the system named is Liver microsome. The experiment in a line: Drug metabolism in human liver microsomes assessed as 7-hydroxy-N-desalkylquetiapine formation at 3 uM after 30 mins by mass spectroscopy in presence of CYP1A2 inhibitor fluvoxamine. Particulars: 0.5 h.
Series [24] concerns Liver microsome. The experiment in a line: Drug metabolism in human liver microsomes treated with N-desalkylquetiapine at 3 uM after 30 mins by mass spectroscopy in presence of CYP2D6 inhibitor quinidine. As to conditions: 0.5 h.
Series [25] relates to Liver microsome. The experiment in a line: Drug metabolism in human liver microsomes treated with N-desalkylquetiapine at 3 uM after 30 mins by mass spectroscopy. Particulars: 0.5 h.
Series [26] has as its system Liver microsome. The experiment in a line: Drug metabolism in human liver microsomes treated with N-desalkylquetiapine at 3 uM after 30 mins by mass spectroscopy in presence of CYP1A2 inhibitor fluvoxamine. Particulars: 0.5 h.
The subject of series [27] is Liver microsome. The experiment in a line: Drug metabolism in human liver microsomes treated with N-desalkylquetiapine at 3 uM after 30 mins by mass spectroscopy in presence of CYP2C19 inhibitor benzylnirvanol. Particulars: 0.5 h.
Series [28] deals with Liver microsome. The experiment in a line: Retention time in human liver microsomes after 30 to 60 mins by mass spectroscopy.
Series [29] relates to Liver microsome. Description: Drug metabolism in human liver microsomes treated with N-desalkylquetiapine at 3 uM after 30 mins by mass spectroscopy in presence of CYP3A4 inhibitor ketoconazole. As to conditions: 0.5 h.
Series [30] has as its system Liver microsome. Description: Drug metabolism in human liver microsomes treated with N-desalkylquetiapine at 3 uM after 30 mins by mass spectroscopy in presence of CYP2C9 inhibitor sulfaphenazole. As to conditions: 0.5 h.

T2 sequence (P08684 whole entry): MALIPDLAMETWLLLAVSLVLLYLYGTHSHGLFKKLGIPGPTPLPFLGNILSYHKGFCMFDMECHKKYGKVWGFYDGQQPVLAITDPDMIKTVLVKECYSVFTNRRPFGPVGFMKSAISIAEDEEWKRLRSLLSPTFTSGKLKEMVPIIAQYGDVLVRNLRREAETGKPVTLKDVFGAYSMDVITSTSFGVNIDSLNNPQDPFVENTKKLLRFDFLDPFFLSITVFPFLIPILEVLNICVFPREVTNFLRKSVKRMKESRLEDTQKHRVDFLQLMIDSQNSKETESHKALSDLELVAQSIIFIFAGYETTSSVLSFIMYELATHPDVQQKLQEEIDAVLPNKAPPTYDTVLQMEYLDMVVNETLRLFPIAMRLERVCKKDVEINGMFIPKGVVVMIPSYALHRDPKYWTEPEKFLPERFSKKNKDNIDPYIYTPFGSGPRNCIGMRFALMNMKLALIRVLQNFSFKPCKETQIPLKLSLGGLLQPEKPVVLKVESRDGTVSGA
CYP3A4, sequence (P08684 whole entry): as above

As a reminder, the Km is the substrate concentration at which the rate is half of its maximum. Turning to `c1ccc2c(c1)N=C(N1CCNCC1)c1ccccc1S2`, the Drug metabolism entry in [1] is “metabolite_detected”; in series [7], “metabolite_not_detected”; in [8] it was “metabolite_detected”; in series [9] it was “metabolite_detected”; in [10], “metabolite_detected”; in series [11] it was “metabolite_detected”. Also, the Drug metabolism result in series [12] is reported as “metabolite_detected”; in series [14] it was “metabolite_detected”; in [15], “metabolite_detected”; in series [16], “metabolite_not_detected”; in series [20] it was “metabolite_detected”; in series [21], “metabolite_detected”. In addition, the Drug metabolism result in series [22] and in [23] was “metabolite_detected” each time. The CL in series [2] was found to be 3 µL/min; in series [5] it was 0.25 µL/min. Further, the metabolised at 1 h in series [3] came out at 6%; in series [18], 47%. Moreover, the Michaelis constant (Km) in [4] turned out to be 110 µM; in [13], 199 µM; in [17], 459 µM; in [19], 15 µM. For the same compound, the Kis in [6] is 824 µM.

On to `[O-][S+]1c2ccccc2N=C(N2CCNCC2)c2ccccc21` (configuration not stated), for which the Drug metabolism entry in series [24] is recorded as “metabolite_not_detected”; in series [25] it was “metabolite_detected”; in series [26], “metabolite_detected”; in series [27], “metabolite_detected”; in series [29], “metabolite_not_detected”; in series [30] it was “metabolite_detected”. In addition, the Retention_time in series [28] turned out to be 3.98 min.

As to `Oc1ccc2c(c1)Sc1ccccc1C(N1CCNCC1)=N2`, the Drug metabolism result is listed as “metabolite_not_detected” in series [24]; “metabolite_detected” in [25]; “metabolite_detected” in series [26]; “metabolite_detected” in series [27]; “metabolite_not_detected” in series [29]; “metabolite_detected” in series [30]. In series [28], the Retention_time amounted to 4.31 min.
